Biological target: T1, hERG channel (Homo sapiens, UniProt Q12809)
T1 construct: gene KCNH2
Experiment: cell-based

T1 sequence (Q12809 whole entry): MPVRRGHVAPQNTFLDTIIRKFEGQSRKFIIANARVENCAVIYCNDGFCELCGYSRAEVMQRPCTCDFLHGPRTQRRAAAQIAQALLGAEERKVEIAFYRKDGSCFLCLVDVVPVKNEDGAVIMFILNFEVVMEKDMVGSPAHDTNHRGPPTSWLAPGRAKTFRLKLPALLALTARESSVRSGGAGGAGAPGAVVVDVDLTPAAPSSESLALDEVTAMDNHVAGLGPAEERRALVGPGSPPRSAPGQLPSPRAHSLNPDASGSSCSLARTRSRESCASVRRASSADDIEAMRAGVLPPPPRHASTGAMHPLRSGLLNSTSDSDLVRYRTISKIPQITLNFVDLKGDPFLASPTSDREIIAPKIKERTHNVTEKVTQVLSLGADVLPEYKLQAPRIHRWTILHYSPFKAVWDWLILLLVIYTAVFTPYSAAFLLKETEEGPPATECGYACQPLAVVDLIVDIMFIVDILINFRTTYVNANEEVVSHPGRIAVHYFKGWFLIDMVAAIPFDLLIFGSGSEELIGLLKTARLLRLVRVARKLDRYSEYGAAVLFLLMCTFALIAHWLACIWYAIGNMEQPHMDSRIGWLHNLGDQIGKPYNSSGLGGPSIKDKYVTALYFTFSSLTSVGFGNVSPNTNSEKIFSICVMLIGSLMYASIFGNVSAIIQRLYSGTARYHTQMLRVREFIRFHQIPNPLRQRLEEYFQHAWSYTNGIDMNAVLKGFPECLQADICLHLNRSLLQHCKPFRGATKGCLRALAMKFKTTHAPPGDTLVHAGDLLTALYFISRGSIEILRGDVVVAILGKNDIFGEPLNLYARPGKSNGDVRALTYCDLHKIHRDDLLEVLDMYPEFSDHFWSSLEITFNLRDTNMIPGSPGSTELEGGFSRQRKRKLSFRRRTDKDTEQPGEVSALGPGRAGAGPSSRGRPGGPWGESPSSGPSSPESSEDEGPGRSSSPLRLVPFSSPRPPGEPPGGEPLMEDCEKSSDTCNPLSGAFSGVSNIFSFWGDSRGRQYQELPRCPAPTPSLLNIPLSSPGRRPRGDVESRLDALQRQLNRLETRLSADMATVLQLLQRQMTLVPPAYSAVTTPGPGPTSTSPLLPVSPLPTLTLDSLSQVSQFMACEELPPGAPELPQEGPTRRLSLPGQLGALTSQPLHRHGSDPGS

`COc1c(-c2ccc3cc(NS(C)(=O)=O)ccc3c2)cc(-n2ccc(=O)[nH]c2=O)cc1C(C)(C)C` [ABT-333] showed an IC50 of 3.2 µM.
